These results are taken from publication PMC12221113, “Deferasirox Derivatives as Inhibitors of Kallikrein‐Related Peptidases Associated to Neurodegenerative Diseases” (Chemmedchem, 2025).

Data set [1] has as its target T1, KLK4 (Homo sapiens, UniProt Q9Y5K2).
T1 construct: purchased R&D Systems
Briefly: Selectivity screening, KLK4. Type of data set: biochemical. The settings on record: 50 μM compound, without Fe3+; read-out: percentage of inhibition KLK4.

Data set [2] in a line: Calcein transchelation (calcein release) assay. Type of data set: physicochemical. The settings on record: calcein 100 nM, 4 h at room temperature; estimation, assay not fully quantitative; read-out: Apparent affinity (pseudo‐affinity constant Kd for Fe3+).
Data set [3] is described as follows: CCK8 cell viability assay, SH-SY5Y. Type of data set: cell-based. The settings on record: human, SH-SY5Y neuroblastoma cells, 25 and 50 μM, in absence or presence of iron (100 µM FAC), read-out: percentage of cell viability. A general note: Formazan colour is commonly taken as a measure of viable cells.
Method: (§1) Human neuroblastoma cell line (SH-SY5Y) was purchased at American Type Culture Collection
(§2) Both cell lines were cultured in Dulbecco’s Modified Eagle Medium (DMEM)
(§3) containing 10% heat inactivated fetal bovine serum (FBS), 1% Penicillin/Streptomycin, 10 mM
(§4) Sodium Pyruvate, 2 mM L-Glutamine and 4,5 g/L D-glucose at 37°C, in a 5% humidified
(§5) incubator. Cells were cultivated until 80% confluence in flasks then were plated in 96-well
(§6) plates. For this experiment, SH-SY5Y were used at 10th passage and HMC3 at 13th. SH-SY5Y
(§7) cells were seeded at a density of 3x10^4 cells/well and HMC3 at a density of 10^4 cells/well. After
(§8) seeding, cells were left in complete medium overnight to adhere to the plates. After that, cells
(§9) were treated using inhibitors solubilized in DMSO at stock concentrations of 2,5 mM or 5 mM
(§10) with or without 10 mM iron. Iron solution was prepared by using FAC (Ferric Ammonium
(§11) Citrate, Sigma®) at stock concentration of 25 mM. After 24h of treatment, cell viability was
(§12) assessed with the CCK8 (Cell-Counting Kit 8) from TargetMol. After treatments, 10 µL of CCK8
(§13) reagent was diluted in 90 µL of complete medium and added to each well. After 3 hours at
(§14) 37°C, cell viability was assessed by absorbance measurement at 460 nm. Each viability assay
(§15) is the mean of two independent experiments performed in triplicates.
(§16) treated for 24h with the two selected concentrations of inhibitor (25 µM or 50 µM)
(§17) preincubated or not with 100 µM of FAC. The data are the mean of two independent
experiments performed in triplicates.
Data set [4] in a line: CCK8 cell viability assay, HMC3. Type of data set: cell-based. The settings on record: human, HMC3 microglial cells; HMC3, 24h, 25 and 50 μM, in absence or presence of iron (100 µM FAC); read-out: percentage of cell viability.
Method: as §1, §2, §3, §4, §5, §6, §7, §8, §9, §10, §11, §12, §13, §14, §15, §16, §17
experiments performed in triplicates.
Data set [5] has as its system KLK's of the CNS triad (KLK1‐KLK6‐KLK8). Briefly: Reversibility analysis by dilution after preincubation. Type of data set: biochemical, human. The settings on record: 100-fold dilution after 15 min preincubation.
Method: Aliquots of reaction mixtures (1 μL) were added to 99 μL of buffer containing the fluorogenic substrate (experimental conditions identical to the routine protocol used for a given enzyme). The mechanism of inhibition was determined by varying substrate and inhibitor concentrations, the type of inhibition and inhibition parameter (Ki or Ki′) are determined by Dixon's plots.
For data set [6], the target named is T2, KLK5 (Homo sapiens, UniProt Q9Y337).
T2 sequence (Q9Y337 67-293 limits assumed): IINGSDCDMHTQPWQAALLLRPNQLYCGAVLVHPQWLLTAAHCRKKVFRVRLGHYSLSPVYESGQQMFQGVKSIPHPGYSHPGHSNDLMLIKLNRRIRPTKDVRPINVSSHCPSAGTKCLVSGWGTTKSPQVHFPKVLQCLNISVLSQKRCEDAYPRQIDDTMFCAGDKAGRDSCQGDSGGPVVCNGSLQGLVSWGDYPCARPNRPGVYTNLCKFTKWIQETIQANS
Briefly: Selectivity screening, KLK5. The settings on record: read-out: percentage of inhibition KLK5.
Method: (§18) All enzyme stocks were stored at −20 °C and purchased from R&D Systems as proenzymes (KLK6, KLK8, KLK13) or as mature and active forms (KLK5). Activation of KLK6, KLK8, and KLK13 is performed in optimized buffers. The activation reaction is initiated by Lysyl‐Endopeptidase at 2.5 mU mL^−1 (Wako Bioproducts). The activation reaction is stopped by diluting the enzyme to 0.5 μg mL^−1 in assay buffer (50 mM Tris, 1 M Citrate, 0.05% w/v Brij‐35, pH 8) to obtain an active enzyme stock. KLK1 was purchased from R & D Systems as pro‐KLK1. Activation of KLK1 is performed in 50 mM Tris‐HCl, 10 mM CaCl2, 150 mM NaCl, 0.05% Brij‐35, pH 7.5. The activation reaction is initiated by bacterial thermolysin at 0.4 μg mL^−1 (Sigma‐Aldrich) and stopped by addition of 100 mM EDTA (Sigma‐Aldrich) to obtain an active KLK1 stock at the same concentration of 100 μg mL^−1. The activation reactions for KLK7 are initiated bacterial thermolysin at 0.4 μg mL^−1 (Sigma‐Aldrich) and stopped by addition of 100 mM EDTA (Sigma‐Aldrich) to obtain active stocks. All enzyme stocks were stored at −20 °C. H‐PFR‐AMC (KLK1), Boc‐VPR‐AMC (KLK5, KLK8, KLK13), Boc‐QAR‐AMC (KLK6, Plasmin), substrates were purchased from Bachem. MeO‐Suc‐RPY‐AMC (KLK7) substrate was purchased from AAT Bioquest. Plasmin (Sigma‐Aldrich) was purchased in mature and active form.
(§19) Compounds were screened on KLKs using a BMG Fluostar microplate reader (black 96‐well microplates). Hit compounds were screened on the selected group of enzymes using optimized concentrations and buffers (KLK1 0.8 nM, KLK4 10 nM, KLK5 0.2 nM; KLK6 1.9 nM; KLK7 6 nM; KLK8 0.2 nM; KLK11 5.2 nM, KLK13 0.47 nM, KLK14 2.5 nM, plasmin 3.3 nM, thrombin 0.1 nM, tissue‐plasminogen activator (tPA) 0.1 nM, matriptase 1 nM, cathepsin L 2 nM) either in absence or prior preincubation in the presence of 100 μM of Fe^3+.
(§20) The proteases are first preincubated for 15 min with each compound (50 and 100 μM) or with DMSO (<2%, negative control) in a total volume of 85 μL of 50 mM Tris buffer, 1 M citrate, 0.05% Brij‐35, pH 7, 37 °C. The reaction is triggered by the appropriate substrate at the optimized concentration in 15 μL of 50 mM Tris buffer, 1 M citrate, 0.05% Brij‐35, pH 8 (H‐PFR‐AMC 100 μM; Boc‐VPR‐AMC 100 μM; Boc‐QAR‐AMC 100 μM; Meo‐Suc‐RPY‐AMC 150 μM, Z‐LR‐AMC 100 μM, Z‐GGR‐AMC 100 μM) and followed for 30 min at 37 °C. […] The release of the AMC fluorescent group is detected using the following wavelengths: λex = 360 nm and λem = 460 nm. The percent inhibition is calculated from Equation (1) where V 0 is the initial rate of the DMSO control, the initial rate in the presence of the inhibitor V i. (1) %inhibition=(1−(vi/v0))×100

Data set [7] addresses T3, KLK13 (Homo sapiens, UniProt Q9UKR3).
T3 sequence (Q9UKR3 26-277 limits assumed): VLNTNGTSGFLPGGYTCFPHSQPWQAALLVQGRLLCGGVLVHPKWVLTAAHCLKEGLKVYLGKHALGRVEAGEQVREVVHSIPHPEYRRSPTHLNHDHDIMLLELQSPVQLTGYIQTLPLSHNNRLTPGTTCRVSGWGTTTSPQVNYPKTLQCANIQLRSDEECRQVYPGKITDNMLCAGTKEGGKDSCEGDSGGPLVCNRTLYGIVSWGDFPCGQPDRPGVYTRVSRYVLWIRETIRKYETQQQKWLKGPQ
Briefly: Selectivity screening, KLK13. The settings on record: read-out: percentage of inhibition KLK13.
Method: as §18, §19, §20

Data set [8] addresses KLK1 (Homo sapiens, UniProt P06870). Briefly: KLK1 fluorogenic enzyme inhibition assay (H-PFR-AMC).
Method: (§21) All enzyme stocks were stored at −20 °C and purchased from R&D Systems as proenzymes (KLK6, KLK8, KLK13) or as mature and active forms (KLK5). Activation of KLK6, KLK8, and KLK13 is performed in optimized buffers. The activation reaction is initiated by Lysyl‐Endopeptidase at 2.5 mU mL^−1 (Wako Bioproducts). The activation reaction is stopped by diluting the enzyme to 0.5 μg mL^−1 in assay buffer (50 mM Tris, 1 M Citrate, 0.05% w/v Brij‐35, pH 8) to obtain an active enzyme stock. KLK1 was purchased from R & D Systems as pro‐KLK1. Activation of KLK1 is performed in 50 mM Tris‐HCl, 10 mM CaCl2, 150 mM NaCl, 0.05% Brij‐35, pH 7.5. The activation reaction is initiated by bacterial thermolysin at 0.4 μg mL^−1 (Sigma‐Aldrich) and stopped by addition of 100 mM EDTA (Sigma‐Aldrich) to obtain an active KLK1 stock at the same concentration of 100 μg mL^−1. […] All enzyme stocks were stored at −20 °C. H‐PFR‐AMC (KLK1), Boc‐VPR‐AMC (KLK5, KLK8, KLK13), Boc‐QAR‐AMC (KLK6, Plasmin), substrates were purchased from Bachem. […] Plasmin (Sigma‐Aldrich) was purchased in mature and active form.
as §19, §20
(§22) The equation is entered in the Kaleidagraph 4.5 software for curve fitting f([I]) = % Inhibition, where [I] is the inhibitor concentration.
(§23) The mechanism of inhibition was determined by varying substrate and inhibitor concentrations, the type of inhibition and inhibition parameter (Ki or Ki′) are determined by Dixon's plots.
The target of data set [9] is KLK6 (Homo sapiens, UniProt Q92876). Briefly: KLK6 fluorogenic enzyme inhibition assay (Boc-QAR-AMC).
Method: as §21, §19, §20, §22, §23
Data set [10] addresses T4, KLK8 (Homo sapiens, UniProt O60259).
T4 sequence (O60259 33-260): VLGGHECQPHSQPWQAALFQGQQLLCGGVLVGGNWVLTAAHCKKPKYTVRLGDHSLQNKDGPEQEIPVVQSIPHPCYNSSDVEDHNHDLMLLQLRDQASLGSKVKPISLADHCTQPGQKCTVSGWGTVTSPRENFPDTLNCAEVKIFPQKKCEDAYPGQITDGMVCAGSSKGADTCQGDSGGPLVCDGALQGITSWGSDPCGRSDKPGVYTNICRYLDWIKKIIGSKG
Briefly: KLK8 fluorogenic enzyme inhibition assay (Boc-VPR-AMC).
Method: as §21, §19, §20, §22, §23

The nature of data set [11]: UV–vis spectroscopy of Fe3+ chelation and complex stability. The data set is classed as physicochemical. The settings on record: activity buffer pH 7.4, 1:1 ratio, t = 0 to 240 min. How it is done: UV–vis analysis of DFX was first performed to monitor the chelation process and the stability of the Fe^3+ complex over time at a 1:1 ratio, typically representing the duration of inhibition assay (30 min to 4 h) (Figure S1, Supporting Information). In these conditions of pH (7.4) and ligand‐to‐iron ratio and according to Steinhauser et al. the main species in solution is assigned to [Fe(DFX)2]^3−.^[ [49] ^] Indeed, we aimed to explore not only the chelation properties but also the impact of the chelated species on enzyme inhibition.
2.c. Chelation properties, iron interactions, and selectivity profiles of selected compounds targeting KLK activity.
Figure S2: Stability of the chelated species as monitored by spectrophotometry. UV/VIS spectra of molecules alone using activity buffer at pH 7.4 (in orange at 500 µM) or in the presence of FeCl3 (ratio of 1:1) at different times (t = 0 in red, 30 min in black, 60 min in blue and 240 min in green). The purple trace corresponds to iron only at 500 µM All data are representative of 2 independent experiments performed in duplicate. […]

Where [12] appears, read: IC50 KLK1, 15 min preincubation at 37 °C, NI = not a hit (not above 50% inhibition at 50 μM).
The mark [13] stands for this setting: IC50 KLK8, 15 min preincubation at 37 °C, NI = not a hit (not above 50% inhibition at 50 μM).

Read-outs that look alike come from different tables or passages of the source.

For orientation: inhibition means the relative decrease from the control value, in per cent. As a reminder, the viability is a per cent measure of how many cells are alive, often set against a control. In general, Ki refers to the equilibrium dissociation constant of an inhibitor or competing ligand from its target. Read a low Ki as tighter binding. As a reminder, the IC50 is the concentration at which inhibition is half-maximal.

Sequence of KLK1 (P06870 25-262): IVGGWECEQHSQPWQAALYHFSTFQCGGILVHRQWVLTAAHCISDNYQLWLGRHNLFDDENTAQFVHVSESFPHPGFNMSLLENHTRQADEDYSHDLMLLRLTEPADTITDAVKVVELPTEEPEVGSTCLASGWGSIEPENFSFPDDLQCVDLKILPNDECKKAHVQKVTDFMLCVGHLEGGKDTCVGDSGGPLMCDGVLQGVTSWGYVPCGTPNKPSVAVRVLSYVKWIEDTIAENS
T1 sequence (Q9Y5K2 31-254): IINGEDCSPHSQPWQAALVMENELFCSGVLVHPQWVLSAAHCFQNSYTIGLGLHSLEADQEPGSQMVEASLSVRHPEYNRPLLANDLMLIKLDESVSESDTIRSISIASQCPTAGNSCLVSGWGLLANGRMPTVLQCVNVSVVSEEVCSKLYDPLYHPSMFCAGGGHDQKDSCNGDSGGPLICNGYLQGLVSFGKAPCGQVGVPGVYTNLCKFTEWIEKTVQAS

For `O=C(c1ccccc1)n1nc(-c2ccccc2O)nc1-c1ccccc1O` [3e], the inhibition at 50 µM in data set [1] came out at 67.2%; in data set [6] it was 98.8%; in data set [7], 97.1%; in data set [8] (read-out: percentage of inhibition KLK1), 82.1%; in [9] (read-out: percentage of inhibition KLK6), 82.4%. The Kd in [2] is 0.41 ± 0.035 nM. The viability at 24 h in data set [3] and in [4] was > 80% in each case. Moreover, the “reversibility and time dependence of inhibition” value in data set [5] was “reversible and time‐independent inhibitors”. This molecule showed an inhibition constant Ki in data set [8] of 24 µM. Also, the “Type of inhibition KLK1” value in [8] (Dixon plot, without Fe3+) was “competitive inhibitor”. Besides, the 50% inhibitory concentration (IC50) was 23.3 ± 0.9 µM in data set [8] (setting [12]) and > 50 µM in [10].

Consider `CCOC(=O)[C@H]1CC[C@H](n2nc(-c3ccccc3O)nc2-c2ccccc2O)CC1` [3fa], for which, in [10], the 50% inhibitory concentration (IC50) is > 50 µM.

Take `O=C(O)[C@H]1CC[C@H](n2nc(-c3ccccc3O)nc2-c2ccccc2O)CC1` [3fb]: the IC50 in data set [10] is > 50 µM.

`CCOC(=O)Cn1nc(-c2ccccc2O)nc1-c1ccccc1O` [3g]: the 50% inhibitory concentration (IC50) in data set [10] was > 50 µM.

Consider `O=C(O)Cn1nc(-c2ccccc2O)nc1-c1ccccc1O` [3h], for which, in data set [2], the Kd was 0.22 ± 0.024 nM. The IC50 in data set [10] is > 50 µM.

Take `COC(=O)c1ccc(-n2nc(-c3ccccc3O)nc2-c2ccccc2O)cc1` [3i]: in data set [10], the half-maximal inhibitory concentration (IC50) was > 50 µM.

`COC(=O)CNC(=O)c1ccc(-n2nc(-c3ccccc3O)nc2-c2ccccc2O)cc1` [3ja]: in data set [2], the Kd is 0.175 ± 0.015 nM. Also, the concentration for half-maximal inhibition (IC50) in [10] is > 50 µM.

As to `O=C(O)CNC(=O)c1ccc(-n2nc(-c3ccccc3O)nc2-c2ccccc2O)cc1` [3jb], in data set [2], the Kd is 0.078 ± 0.009 nM. Also, the IC50 in data set [10] is 27 ± 0.6 µM.

As for `COC(=O)C(Cc1ccccc1)NC(=O)c1ccc(-n2nc(-c3ccccc3O)nc2-c2ccccc2O)cc1` (centres unmarked) [3ka], the IC50 in data set [10] is > 50 µM.

In the case of `O=C(NC(Cc1ccccc1)C(=O)O)c1ccc(-n2nc(-c3ccccc3O)nc2-c2ccccc2O)cc1` (centres unmarked) [3kb], the 50% inhibitory concentration (IC50) in [8] (setting [12]) was 16.4 ± 1 µM; in data set [10], 24.8 ± 1.9 µM.

Regarding `COC(=O)C(Cc1c[nH]c2ccccc12)NC(=O)c1ccc(-n2nc(-c3ccccc3O)nc2-c2ccccc2O)cc1` (centres unmarked) [3la], the Kd in [2] was 0.13 ± 0.02 nM. In [10], the half-inhibitory concentration (IC50) was > 50 µM.

As for `COC(=O)C1CCCN1C(=O)c1ccc(-n2nc(-c3ccccc3O)nc2-c2ccccc2O)cc1` (centres unmarked) [3ma], in [2], the Kd is 0.105 ± 0.022 nM. Besides, the IC50 in [10] is > 50 µM.

Turning to `Oc1ccccc1-c1nc(-c2ccccc2O)n(-c2ccccc2)n1` [3n], the Kd in data set [2] is 0.081 ± 0.045 nM. Moreover, the IC50 in data set [10] (setting [13]) was > 50 µM.

Turning to `N#Cc1ccc(-n2nc(-c3ccccc3O)nc2-c2ccccc2O)cc1` [3o], the IC50 in data set [10] is > 50 µM.

In the case of `Oc1ccccc1-c1nc(-c2ccccc2O)n(-c2ccc(Br)cc2)n1` [3p], the 50% inhibitory concentration (IC50) in data set [10] was > 50 µM.

With `COc1ccc(-n2nc(-c3ccccc3O)nc2-c2ccccc2O)cc1` [3q], the IC50 in data set [10] (setting [13]) is > 50 µM.

`NS(=O)(=O)c1ccc(-n2nc(-c3ccccc3O)nc2-c2ccccc2O)cc1` [3s]: the half-maximal inhibitory concentration (IC50) in data set [10] is > 50 µM.

As to `O=S(=O)(O)c1ccc(-n2nc(-c3ccccc3O)nc2-c2ccccc2O)cc1` [3t], in data set [2], the Kd is 0.165 ± 0.017 nM. For the same molecule, the “UV–vis spectrum in the presence of FeCl3 (iron complex formation)” value (“UV–vis spectrum in the presence of FeCl3” below) in data set [11] is “appearance of an absorption band with a maximum at 468 nm”. Also, the IC50 in [10] was found to be 29.5 ± 1.4 µM.

Consider `NC(=O)c1ccc(-n2nc(-c3ccccc3O)nc2-c2ccccc2O)cc1` [3u], for which the Kd in data set [2] was 0.093 ± 0.007 nM. The molecule further yielded a 50% inhibitory concentration (IC50) in data set [10] of 23.7 ± 2.3 µM.

In the case of `Oc1ccccc1-c1nc(-c2ccccc2O)n(-c2ccc(-c3nnn[nH]3)cc2)n1` [3v], in data set [10], the half-maximal inhibitory concentration (IC50) turned out to be 44.1 ± 1.7 µM.

`[Cl][Fe]([Cl])[Cl]` [Fe3+]: the half-maximal inhibitory concentration (IC50) was determined as 989 µM in [8] (read-out: Pseudo-IC50 of Fe3+ on KLK1, Figure S4 A, curve fit y=(100*M0)/(M0+M2)); 1320 µM in data set [9] (read-out: Pseudo-IC50 of Fe3+ on KLK6, Figure S4 B, curve fit y=(100*M0)/(M0+M2)); 1120 µM in [10] (read-out: Pseudo-IC50 of Fe3+ on KLK8, Figure S4 C, curve fit y=(100*M0)/(M0+M2)).

Consider `O=C(O)c1ccc(-n2nc(-c3ccccc3)nc2-c2ccccc2O)cc1` [compound 9], for which the “UV–vis spectrum in the presence of FeCl3” value in data set [11] was “no changes in the absorption spectra”. Also, the results for the IC50 in data set [8] (setting [12]), in data set [9] and in [10] were > 50 µM, > 50 µM and 46.8 ± 0.2 µM, respectively.

Consider `COc1ccc(-c2nc(-c3ccccc3O)n(-c3ccc(C(=O)O)cc3)n2)cc1` [compound 10], for which the IC50 in [8] (setting [12]) was > 50 µM; in data set [9] it was > 50 µM; in data set [10], 33.4 ± 1.1 µM.

Regarding `COc1ccc(-c2nc(-c3ccccc3O)nn2-c2ccc(C(=O)O)cc2)c(O)c1` [compound 13], in data set [2], the Kd was 0.077 ± 0.019 nM. In data set [11], the “UV–vis spectrum in the presence of FeCl3” value is listed as “a similar absorption band is observed”. For the same molecule, the values for the IC50 in data set [8] (setting [12]), in data set [9] and in [10] were > 50 µM, > 50 µM and 24.8 ± 1.3 µM, respectively.

For the molecule `O=C(O)c1ccc(-n2nc(-c3ccccc3O)nc2-c2ccc(O)cc2O)cc1` [compound 14], the IC50 in data set [8] (setting [12]) was > 50 µM; in data set [9], > 50 µM; in [10], 38.3 ± 3.5 µM.

Turning to `COc1ccc(-c2nc(-c3cccnc3O)n(-c3ccc(C(=O)O)cc3)n2)cc1` [compound 19], in data set [8] (read-out: IC50 KLK1, 15 min preincubation at 37 °C, NI = not a hit (not above 50% inhibition at 50 μM)), the IC50 is > 50 µM.

With `COc1ccccc1-c1nc(-c2ccccc2OC)n(-c2ccc(C(=O)O)cc2)n1` [compound 21], the IC50 in data set [8] (setting [12]), in [9] and in data set [10] was > 50 µM throughout.

Consider `Oc1ccccc1-c1noc(-c2ccccc2O)n1` [compound 23], for which the IC50 in data set [10] (setting [13]) was > 50 µM.
